pIC50: −log10 of the molar value.
Tests used:
human factor XIa = human factor XIa (Homo sapiens, UniProt P03951); assay: Factor XIa Assay; type: biochemical; details: human factor XIa 0.04 nM, 30 min pre-incubation at 25° C., substrate GPR-AFC, pH 7.4, 60 min incubation; read-out: FXIa IC50
Experimental: (§1) The effectiveness of a compound of the present invention as an inhibitor of Coagulation factor XIa can be determined using a relevant purified serine protease, and an appropriate synthetic substrate. The rate of hydrolysis of the chromogenic or fluorogenic substrate by the relevant serine protease was measured both in the absence and presence of compounds of the present invention. Assays were conducted at rt or at 37° C. […] A decrease in the rate of fluorescence change in the presence of inhibitor is indicative of enzyme inhibition. Such methods are known to one skilled in the art. The results of this assay are expressed as the half-maximal inhibitory concentrations (IC50), or the inhibitory constant, Ki.
Compounds were pre-incubated for 30 min at 25° C. with human (0.04 nM) factor XIa in 50 mM HEPES buffer with 150 mM sodium chloride, 5 mM calcium chloride, 0.1% PEG 8000, pH 7.4. factor XIa enzymatic activity was determined by addition of the substrate glycine-proline-arginine-7-amido-4-trifluoromethylcoumarin (GPR-AFC) and measurement of the fluorescence at 400/505 nm after a 60 min incubation at 25° C. The % inhibition for each data point was calculated from the data and analyzed using the log (inhibitor) vs. response four parameters equation to determine the half-maximal inhibitory concentrations (IC50). The IC50 were converted to equilibrium inhibitory constants (Ki) using the Cheng-Prusoff equation.

Human plasma kallikrein = molecular target: T1, Human plasma kallikrein (Homo sapiens, UniProt P03952); assay: Plasma Kallikrein Assay; type: biochemical; details: purified Human plasma kallikrein 0.5 nM, substrate Acetyl-K-P-R-AFC, HEPES pH 7.4, fluorescence 405 Ex/510 Em; read-out: PKal IC50
T1 construct: yields a heavy chain (371 amino acids) and a light chain (248 amino acids); purchased Enzyme Research Laboratories
Experimental: as §1, with “plasma kallikrein” for “Coagulation factor XIa”
Plasma kallikrein determinations were made in 50 mM HEPES buffer at pH 7.4 containing 150 mM NaCl, 5 mM CaCl2), and 0.1% PEG 8000 (polyethylene glycol: Fisher Scientific). Determinations were made using purified Human plasma kallikrein at a final concentration of 0.5 nM (Enzyme Research Laboratories) and the synthetic substrate, Acetyl-K-P-R-AFC (Sigma #C6608) at a concentration of […].
Activity assays were performed by diluting a stock solution of substrate at least tenfold to a final concentration ≤0.2 Km into a solution containing enzyme or enzyme equilibrated with inhibitor. Times required to achieve equilibration between enzyme and inhibitor were determined in control experiments. The reactions were performed under linear progress curve conditions and fluorescence increase measured at 405 Ex/510 Em nm. Values were converted to percent inhibition of the control reaction (after subtracting 100% Inhibition value). IC50 was determined by inflection point from a four parameter logistic curve fit. Ki was calculated using the Cheng Prusoff equation, Ki=IC50/(1+([S]/Km)).

Chain of human factor XIa (P03951 388-625 limits assumed): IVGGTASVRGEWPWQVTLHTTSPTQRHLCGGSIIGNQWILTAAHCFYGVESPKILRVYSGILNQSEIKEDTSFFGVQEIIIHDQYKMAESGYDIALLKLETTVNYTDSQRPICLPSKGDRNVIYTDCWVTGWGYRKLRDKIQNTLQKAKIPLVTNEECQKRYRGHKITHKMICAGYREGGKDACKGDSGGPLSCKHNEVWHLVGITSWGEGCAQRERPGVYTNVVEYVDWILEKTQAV
Chain of human factor XIa (P03951 19-387 partner limits assumed): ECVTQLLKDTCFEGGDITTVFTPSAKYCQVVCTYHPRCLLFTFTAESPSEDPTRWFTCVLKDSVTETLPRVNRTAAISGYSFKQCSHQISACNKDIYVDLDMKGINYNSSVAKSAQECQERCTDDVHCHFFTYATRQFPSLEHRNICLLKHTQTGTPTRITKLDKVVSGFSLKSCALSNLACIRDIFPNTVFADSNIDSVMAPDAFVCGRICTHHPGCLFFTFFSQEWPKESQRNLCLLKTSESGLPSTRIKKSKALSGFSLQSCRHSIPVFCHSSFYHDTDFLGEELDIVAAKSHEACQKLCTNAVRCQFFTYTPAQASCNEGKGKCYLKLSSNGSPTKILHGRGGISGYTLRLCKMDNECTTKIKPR
T1 sequence (P03952 391-638 limits assumed): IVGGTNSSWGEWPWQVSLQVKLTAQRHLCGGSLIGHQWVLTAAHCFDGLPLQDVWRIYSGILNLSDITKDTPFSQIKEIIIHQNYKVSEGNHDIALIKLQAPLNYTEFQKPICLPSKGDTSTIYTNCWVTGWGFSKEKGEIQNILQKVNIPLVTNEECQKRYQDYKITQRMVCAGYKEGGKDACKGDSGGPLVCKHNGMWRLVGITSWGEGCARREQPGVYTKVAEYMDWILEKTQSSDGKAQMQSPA
T1 sequence (P03952 20-390 partner limits assumed): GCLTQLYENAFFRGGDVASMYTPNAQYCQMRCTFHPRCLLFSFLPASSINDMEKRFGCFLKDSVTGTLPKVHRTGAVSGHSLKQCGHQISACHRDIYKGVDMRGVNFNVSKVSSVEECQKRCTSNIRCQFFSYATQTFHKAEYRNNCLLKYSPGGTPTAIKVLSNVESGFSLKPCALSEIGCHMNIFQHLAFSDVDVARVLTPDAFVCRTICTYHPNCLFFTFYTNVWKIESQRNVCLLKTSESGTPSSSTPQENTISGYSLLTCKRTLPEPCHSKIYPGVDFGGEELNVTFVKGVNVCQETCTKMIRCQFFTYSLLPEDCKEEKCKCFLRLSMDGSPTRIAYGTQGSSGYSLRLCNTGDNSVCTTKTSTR

pIC50 (human factor XIa)	pIC50 (Human plasma kallikrein)	SMILES
6.10	7.57	Nc1cc(C2C3COCC32)nn1CC(=O)N1CC[C@@]2(C1)OC(=O)Nc1ccc(Cl)c(F)c12 (stereo partly drawn) [Example 61, (4R)-1′-(2-(5-Amino-3-(3-oxabicyclo[3.1.0]hexan-6-y1)-1H-pyrazol-1-yl)acetyl)-6-chloro-5-fluorospiro[benzo[d][1,3]oxazine-4,3′-pyrrolidin]-2(1H)-one]
6.16	7.51	Nc1cc(C2CCOCC2)nn1CC(=O)N1CC[C@@]2(C1)OC(=O)Nc1ccc(Cl)c(F)c12 [Example 5, (R)-1′-(2-(5-Amino-3-(tetrahydro-2H-pyran-4-y1)-1H-pyrazol-1-yl)acetyl)-6-chloro-5-fluorospiro[benzo[d][1,3]oxazine-4,3′-pyrrolidin]-2(1H)-one]
6.58	8.30	Nc1cc(-c2ccc(F)cc2F)nn1CC(=O)N1CC[C@@]2(C1)OC(=O)Nc1ccc(Cl)c(F)c12 [Example 46, (R)-1′-(2-(5-Amino-3-(2,4-difluorophenyl)-1H-pyrazol-1-yl)acetyl)-6-chloro-5-fluorospiro[benzo[d][1,3]oxazine-4,3′-pyrrolidin]-2(1H)-one]
6.54	8.60	Nc1cc(-c2ccccc2OC(F)(F)F)nn1CC(=O)N1CC[C@@]2(C1)OC(=O)Nc1ccc(Cl)c(F)c12 [Example 55, (R)-1′-(2-(5-Amino-3-(2-(trifluoromethoxy)phenyl)-1H-pyrazol-1-yl)acetyl)-6-chloro-5-fluorospiro[benzo[d][1,3]oxazine-4,3′-pyrrolidin]-2(1H)-one]
6.60	7.89	Nc1cc(-c2cccs2)nn1CC(=O)N1CC[C@@]2(C1)OC(=O)Nc1ccc(Cl)c(F)c12 [Example 39, (R)-1′-(2-(5-Amino-3-(thiophen-2-y1)-1H-pyrazol-1-yl)acetyl)-6-chloro-5-fluorospiro[benzo[d] [1,3]oxazine-4,3′-pyrrolidin]-2(1H)-one]
6.65	7.79	Nc1cc(-c2ccco2)nn1CC(=O)N1CC[C@@]2(C1)OC(=O)Nc1ccc(Cl)c(F)c12 [Example 40, (R)-1′-(2-(5-Amino-3-(furan-2-y1)-1H-pyrazol-1-yl)acetyl)-6-chloro-5-fluorospiro[benzo[d] [1,3]oxazine-4,3′-pyrrolidin]-2(1H)-one]
5.74	7.49	Nc1c(Cl)c(-c2ncc(F)cc2F)nn1CC(=O)N1CC[C@@]2(C1)OC(=O)Nc1ccc(Cl)c(F)c12 [Example 31, (R)-1′-(2-(5-Amino-4-chloro-3-(3,5-difluoropyridin-2-y1)-1H-pyrazol-1-yl)acetyl)-6-chloro-5-fluorospiro[benzo[d][1,3]oxazine-4,3′-pyrrolidin]-2(1H)-one]
6.32	7.65	Nc1c2c(nn1CC(=O)N1CCC[C@@]3(C1)OC(=O)Nc1ccc(Cl)c(F)c13)CCCC2 [Example 26, (R)-1′-(2-(3-Amino-4,5,6,7-tetrahydro-2H-indazol-2-yl)acetyl)-6-chloro-5-fluorospiro[benzo[d][1,3]oxazine-4,3′-piperidin]-2(1H)-one]
6.72	8.60	Nc1cc(-c2ccccc2Br)nn1CC(=O)N1CC[C@@]2(C1)OC(=O)Nc1ccc(Cl)c(F)c12 [Example 57, (R)-1′-(2-(5-Amino-3-(2-bromophenyl)-1H-pyrazol-1-yl)acetyl)-6-chloro-5-fluorospiro[benzo[d][1,3]oxazine-4,3′-pyrrolidin]-2(1H)-one]
6.79	7.43	Nc1c(F)c(-c2ccc(F)cc2F)nn1CC(=O)N1CCC[C@@]2(C1)OC(=O)Nc1ccc(Cl)c(F)c12 [Example 30, (R)-1′-(2-(5-Amino-3-(2,4-difluorophenyl)-4-fluoro-1H-pyrazol-1-yl)acetyl)-6-chloro-5-fluorospiro[benzo[d][1,3]oxazine-4,3'-piperidin]-2(1H)-one]
6.50	7.79	Nc1cc(C2CCCC2)nn1CC(=O)N1CC[C@@]2(C1)OC(=O)Nc1ccc(Cl)c(F)c12 [Example 4, (R)-1′-(2-(5-Amino-3-cyclopenty1-1H-pyrazol-1-yl)acetyl)-6-chloro-5-fluorospiro[benzo[d][1,3]oxazine-4,3′-pyrrolidin]-2(1H)-one]
6.94	7.81	Nc1cc(-c2ccccc2)nn1CC(=O)N1CC[C@@]2(C1)OC(=O)Nc1ccc(Cl)c(F)c12 [Example 24, (R)-1′-(2-(5-Amino-3-phenyl-1H-pyrazol-1-yl)acetyl)-6-chloro-5-fluorospiro[benzo[d][1,3]oxazine-4,3'-pyrrolidin]-2(1H)-one]
6.30	8.18	COc1ccccc1-c1cc(N)n(CC(=O)N2CC[C@@]3(C2)OC(=O)Nc2ccc(Cl)c(F)c23)n1 [Example 62, (R)-1′-(2-(5-Amino-3-(2-methoxyphenyl)-1H-pyrazol-1-yl)acetyl)-6-chloro-5-fluorospiro[benzo[d][1,3]oxazine-4,3′-pyrrolidin]-2(1H)-one]
6.19	8.10	Nc1cc(-c2ccc3c(c2)OCO3)nn1CC(=O)N1CC[C@@]2(C1)OC(=O)Nc1ccc(Cl)c(F)c12 [Example 2, (R)-1′-(2-(5-Amino-3-(benzo[d][1,3]dioxol-5-y1)-1H-pyrazol-1-yl)acetyl)-6-chloro-5-fluorospiro[benzo[d][1,3]oxazine-4,3′-pyrrolidin]-2(1H)-one]
6.71	8.43	Nc1cc(-c2c(F)cc(F)cc2F)nn1CC(=O)N1CC[C@@]2(C1)OC(=O)Nc1ccc(Cl)c(F)c12 [Example 59, (R)-1′-(2-(5-Amino-3-(2,4,6-trifluorophenyl)-1H-pyrazol-1-yl)acetyl)-6-chloro-5-fluorospiro[benzo[d][1,3]oxazine-4,3′-pyrrolidin]-2(1H)-one]
7.06	8.62	Nc1c2c(nn1CC(=O)N1CCC[C@@]3(C1)OC(=O)Nc1ccc(Cl)c(F)c13)-c1ccccc1C2 [Example 18, (R)-1′-(2-(3-Aminoindeno[1,2-c]pyrazol-2(4H)-yl)acetyl)-6-chloro-5-fluorospiro[benzo[d][1,3]oxazine-4,3′-piperidin]-2(1H)-one]
5.85	8.11	Nc1cc(-c2cc3ccccc3o2)nn1CC(=O)N1CC[C@@]2(C1)OC(=O)Nc1ccc(Cl)c(F)c12 [Example 48, (R)-1′-(2-(5-Amino-3-(benzofuran-2-y1)-1H-pyrazol-1-yl)acetyl)-6-chloro-5-fluorospiro[benzo[d][1,3]oxazine-4,3′-pyrrolidin]-2(1H)-one]
5.57	7.43	Nc1cc(-c2cccc(C(F)(F)F)c2)nn1CC(=O)N1CC[C@@]2(C1)OC(=O)Nc1ccc(Cl)c(F)c12 [Example 12, (R)-1′-(2-(5-Amino-3-(3-(trifluoromethyl)phenyl)-1H-pyrazol-1-yl)acetyl)-6-chloro-5-fluorospiro[benzo[d][1,3]oxazine-4,3′-pyrrolidin]-2(1H)-one]
6.21	7.82	Cc1cccc(-c2cc(N)n(CC(=O)N3CC[C@@]4(C3)OC(=O)Nc3ccc(Cl)c(F)c34)n2)c1 [Example 42, (R)-1′-(2-(5-Amino-3-(m-toly1)-1H-pyrazol-1-yl)acetyl)-6-chloro-5-fluorospiro[benzo[d][1,3]oxazine-4,3′-pyrrolidin]-2(1H)-one]
6.56	7.41	Nc1c2c(nn1CC(=O)N1CC[C@@]3(C1)OC(=O)Nc1ccc(Cl)c(F)c13)CCC2 [Example 13, (R)-1′-(2-(3-Amino-5,6-dihydrocyclopenta[c]pyrazo1-2(4H)-yl)acetyl)-6-chloro-5-fluorospiro[benzo[d] [1,3]oxazine-4,3′-pyrrolidin]-2(1H)-one]
7.26	7.78	Nc1cc(C2CC2)nn1CC(=O)N1CCC[C@@]2(C1)OC(=O)Nc1ccc(Cl)c(F)c12 [Example 28, (R)-1′-(2-(5-Amino-3-cyclopropyl-1H-pyrazol-1-yl)acetyl)-6-chloro-5-fluorospiro[benzo[d][1,3]oxazine-4,3′-piperidin]-2(1H)-one]

From US20240208994A1, “PLASMA KALLIKREIN INHIBITORS” (Merck Sharp & Dohme LLC, priority 2021, published 2024)
